We go through six compounds from PMC7541926 (Preventive Nutrition and Food Science, 2020).

The target of assay [1] is T1, Saccharomyces cerevisiae α-glucosidase (Saccharomyces cerevisiae, UniProt P53341). The assay is described as follows: Enzyme kinetics of α-glucosidase inhibitory activity. As to conditions: Lineweaver-Burk double reciprocal plot.
The target of assay [2] is T1, Saccharomyces cerevisiae α-glucosidase. The assay can be described thus: Enzyme assay for α-glucosidase inhibitory activity.

T1 sequence (P53341 whole entry): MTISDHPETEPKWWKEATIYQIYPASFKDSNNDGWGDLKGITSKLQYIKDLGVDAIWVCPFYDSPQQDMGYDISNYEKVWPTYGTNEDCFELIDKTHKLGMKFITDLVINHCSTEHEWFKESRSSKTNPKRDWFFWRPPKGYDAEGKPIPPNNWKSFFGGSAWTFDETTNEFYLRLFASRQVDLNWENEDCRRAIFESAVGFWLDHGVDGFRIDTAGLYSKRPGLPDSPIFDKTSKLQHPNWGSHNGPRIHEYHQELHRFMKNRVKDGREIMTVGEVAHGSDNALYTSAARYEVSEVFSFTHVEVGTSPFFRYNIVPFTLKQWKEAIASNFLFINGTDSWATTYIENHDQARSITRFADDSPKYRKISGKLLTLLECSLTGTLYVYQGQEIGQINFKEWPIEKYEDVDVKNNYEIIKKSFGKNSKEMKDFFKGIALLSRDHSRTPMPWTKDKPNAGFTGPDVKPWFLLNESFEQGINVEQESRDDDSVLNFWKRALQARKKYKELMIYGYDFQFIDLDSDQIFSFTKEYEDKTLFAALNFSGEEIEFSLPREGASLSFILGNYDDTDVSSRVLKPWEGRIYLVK

Take `C[C@H]1O[C@H](O[C@H]2[C@H](O)[C@@H](O)[C@@H](O[C@H]3[C@H](O)[C@@H](O)C(O)O[C@@H]3CO)O[C@@H]2CO)[C@H](O)[C@@H](O)[C@@H]1N[C@H]1C=C(CO)[C@@H](O)[C@H](O)[C@H]1O` (some centres unmarked) [Acarbose, acarbose, reference compound]: the Mode of inhibition entry in assay [1] was “Competitive”.

The compound `Oc1cc(O)c2cc(O)c(-c3ccc(O)c(O)c3)[o+]c2c1` [Cyanidin, cyanidin chloride] gave an IC50 in assay [2] of 17 ± 1.35 µM. The Mode of inhibition entry in assay [1] is “Mixed type, close to non-competitive”.

`Oc1cc(O)c2cc(O)c(-c3cc(O)c(O)c(O)c3)[o+]c2c1` [Delphinidin, delphinidin chloride] had an IC50 in assay [2] of 4.11 ± 0.49 µM. In addition, the Mode of inhibition result in assay [1] is recorded as “Mixed type, close to non-competitive”. Take `COc1cc(-c2[o+]c3cc(O)cc(O)c3cc2O)cc(OC)c1O` [Malvidin, malvidin chloride]: the IC50 in assay [2] stood at 54.7 ± 2.14 µM. For the same compound, the Mode of inhibition entry in assay [1] was “Mixed type, close to non-competitive”.

The compound `Oc1ccc(-c2[o+]c3cc(O)cc(O)c3cc2O)cc1` [Pelargonidin, pelargonidin chloride] displayed an IC50 in assay [2] of 50.3 ± 4 µM. Moreover, the Mode of inhibition entry in assay [1] is “Mixed type, close to non-competitive”.

`COc1cc(-c2[o+]c3cc(O)cc(O)c3cc2O)cc(O)c1O` [Petunidin, petunidin chloride] had an IC50 in assay [2] of 30.8 ± 1.17 µM. Also, the Mode of inhibition entry in assay [1] is given as “Competitive”.
